The values below come from US9359196B2, “Antiproliferative compositions comprising curcumin analogs and methods of producing and using same” (The Board of Regents of the University of Oklahoma, priority 2009, dated 2016).

Common to all, as to assay type: cell-based, human
Data set [1] deals with H441 cells. The data set can be described thus: Cell proliferation assay in H441 cells (hexosaminidase), Example 3. Here is the method:
Cell proliferation assay: CLEFMA was synthesized and analyzed for purity by the methods detailed elsewhere. Doxorubicin (DOX, GBiosciences, Maryland Heights, Mo.), Paclitexal (PAX, EMD Chemicals, Gibbstown, N.J.), Curcumin (CUR, Sigma, St. Louis, Mo.) and Gemcitabine (GMCB, Acros Organics, Morris Plains, N.J.) were obtained from commercial sources. For cell proliferation assays, the cells were seeded in 96-well, flat-bottom tissue culture plates at a density of 5,000 cells per well. The cells were allowed to adhere and grow overnight, followed by their treatment with drugs (0-20 μM). All drugs were added as solutions in dimethylsulfoxide (DMSO) filtered through 0.2-μm nylon filters; control wells received identical amounts of DMSO without any drugs. The inhibition of cell proliferation was determined after 24-48 h by measuring the decrease in hexosaminidase activity as described by Landegren [Landegren, 1984]; para-nitrophenol-N-acetyl-beta-D-glucosaminide was used as a substrate for the hexosaminidase enzyme. To assess the effect of antioxidants, the cells were simultaneously treated with catalase (CAT, 1000 U), superoxide dismutase (SOD, 500 U) and N-acetylcysteine (NAC, 1 mM). A non-toxic concentration of CAT (Worthington, N.J.), SOD (Sigma, St. Louis, Mo.) and NAC (Enzo Life Sciences, Plymouth Meeting, Pa.) was established in H441 cells prior to these experiments.

Data set [2] deals with H441 cells. The data set can be described thus: GSH/GSSG assay in H441 cells. To be noted: 12 and 24 h. Here is the method:
Glutathione-to-glutathione disulfide (GSH/GSSG) assay: In order to assess the effect of CLEFMA on cellular GSH levels, a kit from Oxford Biomedical Research (Oxford, Mich.) was used and followed a modification of the method reported elsewhere (NCL Method GTA-3, Nanotechnology Characterization Lab, Frederick, Md.). H441 were seeded in a 12-well plate (1 million cells/well) and treated with CLEFMA for 12 and 24 h. The medium was removed and the cell layer was washed twice with ice-cold PBS. After adding 100 μl of ice-cold 5% m-phosphoric acid, the cells were scraped into a microfuge tube and centrifuged at 1000×g at 4° C. for 10 min. The supernatant was removed to a fresh tube for the GSSG and GSH assays. For the GSSG determination, approximately 30 μl supernatant was mixed with 20 μl thiol scavenger and 130 μl ice-cold assay buffer, and for the GSH assay, approximately 5 μl of the supernatant was diluted in 180 μl with ice-cold assay buffer. […] The plate was read in a microplate reader at 405-414 nm at 0 and 10 min after DTNB was added. The GSH and GSSG concentrations were determined following a linear regression analysis and normalized to total protein. The ratio (GSH−2GSSG)/GSSG was calculated and expressed as the percent of untreated control cells.

For data set [3], the system named is H441 cells. The data set can be described thus: Illumina microarray gene expression analysis of H441 cells. To be noted: H441, 1 μM, 12 hours. Here is the method: RNA Extraction and microarray sample processing: H441 cells were seeded in […] tissue culture plates at a density of 1×10^6 cells per well. The cells were allowed to attach and grow overnight and then treated with CLEFMA (n=5) at 1 μM in culture medium supplemented with 5% FBS. The DMSO concentration was maintained at 0.1% per well. Control wells (n=5) received equivalent volumes of DMSO without any test compound. The cells were kept in the treatment medium for 12 hours, after which the cells were washed twice with ice-cold Dulbecco's phosphate buffered saline (PBS). The total RNA was extracted using the RNAeasy kit (Qiagen, CA) as per the manufacturer's instructions. The quality of RNA was ascertained by the Nanodrop 2000 spectrophotometer (NanoDrop products, Wilmington, Del.).
The expression of >48,000 genes were compared using Illumina Human WG-6 v3 arrays. Hybridization to Illumina microarrays was performed at the Oklahoma Medical Research Foundation (Oklahoma City, USA). RNA (250 ng) from each sample was labeled using the Illumina Total Prep RNA Amplification Kit following the manufacturer's directions (Ambion, Austin, Tex.). Briefly, cDNA was reverse transcribed from RNA after priming with T7-oligo-dT, and cRNA was synthesized from the T7 promoter while incorporating biotinylated UTP. The cRNA was then hybridized overnight to Illumina BeadChips, and the microarray chips were washed with high stringency and labeled with streptavidin-Cy3 (Amersham Biosciences; Piscataway, N.J.) prior to scanning on an Illumina BeadArray Reader.
Microarray Data Analysis: The Illumina WG-6_v3 array data for each experimental condition were exported from the BeadStudio Software for further analysis. The data were normalized as described previously [Dozmorov et al., 2004; Dozmorov et al., 2009] using the variability of low-expressing genes as a reference point. In order to find genes expressed above the level of technical noise, a frequency histogram of raw expression values was examined for each array. The histogram yielded a right-skewed unimodal distribution curve with a mode of approximately 75. A normal distribution curve representing the variability of the data around zero was then fitted around the mode, mirroring the Gaussian profile of the left part of the histogram. Its parameters were then defined (mean and standard deviation (SD)) and the data were normalized to the standard deviation of the noise after subtraction of the mean. […] The data were then filtered to remove genes with an expression value less than 3.0. This is equivalent to setting a threshold at 3 SD above the noise level. The genes that expressed below the noise level under all experimental conditions (approximately 1,600) were excluded from consideration, as their expression could not be reliably assessed. Full microarray data were deposited in the Gene Expression Omnibus (GEO, GSE23420) and are accessible on the GEO web site.
To identify differentially expressed genes between two experimental groups, the associative analysis as described elsewhere [Dozmorov et al., 2009] was used. Briefly, a reference group of genes expressed above background with low variability of expression in pooled microarray datasets was identified by an F-test. […] For the genes with statistically significant variability above the random, the variations were assumed to have biological reasons. An associative t-test was applied to investigate if a given gene belongs to a certain group. […]

For `O=C(O)C=CC(=O)N1CC(=Cc2ccccc2Cl)C(=O)C(=Cc2ccccc2Cl)C1` [Compound 29, 4-[3,5-Bis-(2-chlorobenzylidene)-4-oxo-piperidin-1-yl]-4-oxo-2-butenoic acid], in data set [1] (10 and 20 μM), the “antiproliferative activity versus PAX, GMCB, DOX, CUR” value is listed as “antiproliferative activity comparable to that shown by these drugs”. The “effect of co-administered CAT, SOD, NAC on cytotoxicity” value in data set [1] (CLEFMA 10 and 20 μM) is “partially rescue CLEFMA-induced cytotoxicity”. Moreover, the GSH/GSSG ratio entry in data set [2] was “strong dose-dependent reduction of the GSH/GSSG ratio”. In data set [3], this compound gave a GAPDH expression increase of 1.3 fold, an HMOX1 expression increase of 5.3 fold, an SOD1 expression increase of 1.3 fold and an SULTA1 expression increase of 3.8 fold. Further, the SULTA2 expression increase in data set [3] was found to be 8.5 fold.
